# Target: T1, N-terminally GST-tagged DLK (catalytic domain amino acid 1-520) (Homo sapiens, UniProt Q12852)
# T1 construct: N-terminally GST-tagged DLK (catalytic domain amino acid 1-520); purchased Carna Bioscience
# T1 sequence (Q12852 1-520): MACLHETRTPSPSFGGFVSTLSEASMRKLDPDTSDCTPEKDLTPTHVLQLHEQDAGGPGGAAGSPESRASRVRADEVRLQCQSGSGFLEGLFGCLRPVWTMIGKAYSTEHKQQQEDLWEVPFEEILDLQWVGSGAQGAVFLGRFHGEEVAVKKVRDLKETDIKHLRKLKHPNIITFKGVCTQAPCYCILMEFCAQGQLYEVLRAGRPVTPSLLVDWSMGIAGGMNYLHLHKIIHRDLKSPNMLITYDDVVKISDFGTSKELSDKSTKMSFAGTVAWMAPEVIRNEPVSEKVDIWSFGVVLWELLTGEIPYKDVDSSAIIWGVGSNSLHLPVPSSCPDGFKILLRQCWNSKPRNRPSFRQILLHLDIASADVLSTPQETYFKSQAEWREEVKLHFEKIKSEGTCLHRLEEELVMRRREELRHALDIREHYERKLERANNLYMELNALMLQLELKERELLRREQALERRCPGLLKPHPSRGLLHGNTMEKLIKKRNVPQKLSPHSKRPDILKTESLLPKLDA
# Test: DLK TR-FRET inhibition assay
# Format: biochemical
# Details: 5 nM GST-DLK, 40 nM HIS-MKK4 K131M substrate, 30 μM ATP, 60 minutes at ambient temperature
# How it was run: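 Phosphorylated MKK4 was quantified by TR-FRET (Eu-labelled anti-phospho-MKK4, D2 anti-HIS; 3 h, 665 and 615 nm emission) after EDTA quench. Reactions held 5 nM GST-tagged DLK catalytic domain (1-520), 40 nM HIS-MKK4 K131M substrate, 30 μM ATP and compound (3-fold series from 20 uM), 60 min, room temperature, pH 7.5.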
row,SMILES,Ki [nM]
1,"CC(C)n1nc(-c2cnc(N)c(C(F)(F)F)c2)cc1[C@H]1[C@@H]2C[C@H](n3ccnc3)C[C@@H]21 [compound 115, 5-(5-((1R,3r,5S,6r)-3-(1H-imidazol-1-yl)bicyclo[3.1.0]hexan-6-yl)-1-isopropyl-1H-pyrazol-3-yl)-3-(trifluoromethyl)pyridin-2-amine]",9.19
2,"CC(C)n1nc(-c2cnc(N)c(C(F)(F)F)c2)cc1[C@H]1[C@@H]2C[C@H](N(C)CCS(C)(=O)=O)C[C@@H]21 [compound 8, 5-(1-isopropyl-5-((1R,3r,5S,6r)-3-(methyl(2-(methylsulfonyl)ethyl)amino)bicyclo[3.1.0]hexan-6-yl)-1H-pyrdzol-3-yl)-3-(trifluoromethyl)pyridin-2-amine]",3.36
3,"CC(C)n1nc(-c2cnc(N)c(C(F)(F)F)c2)cc1[C@H]1[C@@H]2C[C@@H](NCC(F)F)C[C@@H]21 [compound 254, 5-(5-((1R,3s,5S,6r)-3-((2,2-difluoroethyl)amino)bicyclo[3.1.0]hexan-6-yl)-1-isopropyl-1H-pyrazol-3-yl)-3-(trifluoromethyl) pyridin-2-amine]",2.4
4,"CC(C)n1nc(-c2cnc(N)c(C(F)(F)F)c2)cc1[C@H]1[C@@H]2C[C@@H](N)C[C@@H]21 [compound 276, 5-(5-((1R,3s,5S,6r)-3-aminobicyclo [3.1.0]hexan-6-yl)-1-isopropyl-1H-pyrazol-3-yl)-3-(trifluoro-methyl)pyridin-2-amine]",1.8

# Other lines, results leading:
row,Ki [nM],SMILES
1,2.6,"CC(C)n1nc(-c2cnc(N)c(OC(F)(F)F)c2)cc1[C@H]1[C@@H]2C[C@@H](N3C[C@@H]4C[C@H]3CN4C)C[C@@H]21 [compound 209, 5-(1-isopropyl-5-((1R,3s,5S,6S)-3-((1S,4S)-5-methyl-2,5-diazabicyclo [2.2.1]heptan-2-yl)bicyclo [3.1.0]hexan-6-yl)-1H-pyrazol-3-yl)-3-(trifluoromethoxy) pyridin-2-amine]"
2,220,"Nc1ncc(-c2cc([C@H]3[C@@H]4C[C@H](N5CCOCC5)C[C@@H]43)nn2CC2CC2)cc1OC(F)F [compound 267, 5-(1-(cyclopropylmethyl)-3-((1R,3r,5S,6r)-3-morpholinobicyclo [3.1.0]hexan-6-yl)-1H-pyrazol-5-yl)-3-(difluoromethoxy) pyridin-2-amine]"
3,2.9,"CC(C)n1nc(-c2cnc(N)c(C(F)(F)F)c2)cc1[C@H]1[C@@H]2C[C@H](N3CC(C#N)C3)C[C@@H]21 [compound 70, 1-((1R,3r,5S,6r)-6-(3-(6-amino-5-(trifIuoromethyl)pyridin-3-yl)-1-isopropyl-1H-pyrazol-5-yl)bicyclo[3.1.0]hexan-3-yl)azetidine-3-carbonitrile]"
4,2.2,"CC(C)n1nc(-c2cnc(N)c(OC(F)(F)F)c2)cc1[C@H]1[C@@H]2C[C@@H](N3CC4(CN(C)CCO4)C3)C[C@@H]21 [compound 219, 5-(1-isopropyl-5-((1R,3s,5S,6r)-3-(8-methyl-5-oxa-2,8-diazaspiro [3.5]nonan-2-yl)bicyclo[3.1.0]hexan-6-yl)-1H-pyrazol-3-yl)-3-(trifluoromethoxy)pyridin-2-amine]"
5,1.8,"CC(C)N1CCN([C@@H]2C[C@@H]3[C@H](C2)[C@H]3c2cc(-c3cnc(N)c(OC(F)F)c3)nn2C(C)C)CC1 [compound 176, 3-(difluoromethoxy)-5-(1-isopropyl-5-((1R,3s,5S,6r)-3-(4-isopropyl-piperazin-1-yl)bicyclo[3.1.0]hexan-6-yl)-1H-pyrazol-3-yl) pyridin-2-amine]"
6,5.8,"CC(C)n1nc(-c2cnc(N)c(C(F)(F)F)c2)cc1[C@H]1[C@@H]2C[C@@H](N3CCN(C)C4(COC4)C3)C[C@@H]21 [compound 180, 5-(1-isopropyl-5-((1R,3s,5S,6r)-3-(5-methyl-2-oxa-5,8-diazaspiro [3.5]nonan-8-yl)bicyclo[3.1.0]hexan-6-yl)-1H-pyrazol-3-yl)-3-(trifluoromethyl)pyridin-2-amine]"

# From US9365583B2, “Substituted pyrazoles and uses thereof” (Genentech, Inc., priority 2013, dated 2016)
